US10668094B2, “Selective inhibitors of Alpha2-containing isoforms of Na,K-ATPase and use thereof for reduction of intraocular pressure” (Yeda Research and Development Co. Ltd., priority 2015, dated 2020)
Several values for one entry are separate records, joined by “and”; a condition that tells them apart may be missing. Equal values may be shown once. Read-outs that look alike come from different tables or passages of the source.

Assays:
[1] = test system: tissues of the eye; test: Histological examination of eye tissues after topical application for one week; format: in vivo, rabbit; settings: one drop of 1 mM daily for one week
Protocol: In order to assess whether topical application of DcB damaged the tissues of the eye including cornea, iris, lens, cilary body, retina, choroid and sclera, a histological examination was conducted after topical application, using one drop of 1 mM DcB daily for one week in one eye of each animal, with the other eye treated topically with one drop of PBS and serving as the control. Animals were sacrificed, eyes were removed, fixed in 10% neutral buffered formalin, processed routinely for histological examination, trimmed at 4 μm, and stained with hematoxylin and eosin.

[2] = target: human Na,K-ATPase α2β1FXYD1 (Homo sapiens, UniProt P50993); format: biochemical
[3] = test system: human Na,K-ATPase α2β1FXYD1; format: biochemical
[4] = test system: 4AP-induced IOP in rabbits; format: in vivo, rabbit; settings: one drop topically prior to 4AP
[5] = target: human Na,K-ATPase α2β3FXYD1 (Homo sapiens (Human), UniProt P50993+P54709); test: biochemical; format: biochemical
[6] = target: Na,K-ATPase in bovine ciliary NPE cells (Bos taurus, UniProt A2VDL6); test: biochemical
[7] = test system: Na,K-ATPase in bovine ciliary NPE cells; test: biochemical; settings: 1 site model; read-out: Ki, nM ± SEM
[8] = target: Na,K-ATPase in bovine ciliary NPE cells (Bos taurus, UniProt Q08DA1); test: biochemical
[9] = test system: basal IOP in rabbits; test: Basal IOP in rabbits, topical administration; format: in vivo, rabbit
[10] = target: human Na,K-ATPase α1β1FXYD1 (Homo sapiens (Human), UniProt P05023); format: biochemical
[11] = target: human Na,K-ATPase α2β2FXYD1 (Homo sapiens (Human), UniProt P50993); format: biochemical

CC1CN(C2CCC2)CCC(O[C@@H]2[C@H](C)O[C@@H](O[C@@H]3[C@H](C)O[C@@H](O[C@H]4CC[C@@]5(C)C(CCC6C5C[C@H](O)[C@]5(C)[C@@H](C7=CC(=O)OC7)CC[C@]65O)C4)C[C@@H]3O)C[C@@H]2O)O1 (some centres unmarked) [DcB]
histological differences between treated and untreated eyes [1]: No significant histological differences were observed
Ki ([2]; read-out: Ki in nM ± SEM α2β1): 8 ± 1.25 nM
Ki ([2]; read-out: Ki of α2β1FXYD1): 8 ± 1.25 nM
Selectivity Ki ratio α1β1/α2β1 [3]: 16.9
concentration that prevents the 4AP-induced rise in IOP [4]: 0.01 mM
Ki for α2β3 lower than for digoxin [5]: about 10 fold
Selectivity Ki ratio α1β1/α2β3 [5]: 33.6
selectivity for α2β3 over α1β1 (Ki α1β1:α2β3 ratio) [5]: 33 fold
Ki ([5]; read-out: Ki in nM ± SEM α2β3): ~4 nM and 4 nM
Ki [6]: 6.9 ± 2 nM
Ki ([6]; read-out: Ki α2, 2 sites model): 6.9 nM
Ki [7]: 17.3 ± 2.5 nM
Ki [8]: 151 ± 7.6 nM
time after which IOP returned to the control value ([9]; 1 mM DcB, 0.005% Latanoprost): 12 h
effect on basal IOP at higher concentration ([9]; 2 mM): reduces the IOP similarly to 1 mM DcB
steady-state IOP as % of the unchanged control values ([9]; after 3-8 hours): 75-80%
steady-state IOP lower than basal IOP ([9]; after 3-8 hours, basal IOP 17-18 mmHg, 1 mM DcB, 0.005% Latanoprost): 3.5±0.15 mmHg
effect on lowering basal IOP ([9]; one drop of 1 mM solution, other eye PBS): notable effect
reduction of basal IOP ([9]; rabbit with a basal IOP of 17 mm Hg): about 4 mm Hg
more effective than Latanoprost in reducing basal IOP ([9]; relative to Latanoprost): about 25%
reduction of basal IOP ([9]; topical, test period of 4-5 hours): 20-25%
Ki for α1β1 lower than for digoxin [10]: 2-3 fold
Ki ([10]; read-out: Ki in nM ± SEM α1β1): 135 ± 11 nM
Ki ([10]; read-out: Ki of α1β1FXYD1): 135 ± 11 nM
Selectivity Ki ratio α1β1/α2β2 [11]: 22.2
Ki ([11]; read-out: Ki in nM ± SEM α2β2): 6 ± 1 nM
